# Structures can show the parent of a compound that is named as a salt. Where two headings read alike, the source gives them in different places.
# Legend:
# [1] = cited from earlier work
# [2] = cited from earlier work; remark: listed apart in the source
# [3] = Single dose study: intravenous cocaine, detection in oral fluid and urine by STC assay and GC/MS; format: in vivo, human
# Procedure: A total of 10 volunteers received 10 or 25 mg of intravenous cocaine in a controlled environment. Oral fluid and urine specimens were collected over 0-130 hours after dose. Oral fluid specimens (400 µL) were added to the collection pad and diluted into the EPISCREEN™ Control Matrix. Samples were then tested using the STC assay and GC/MS. The results were platted over time for each patient. The oral fluid and urine results were compared using similar points on the curve. For all volunteers, regardless of the dose, the cocaine concentrations in oral fluid were detectable 5 minutes after dosing. For the subject who received 10 mg, oral fluid cocaine levels were no longer detectable after 25 minutes. For the remaining nine subjects who received 25 mg intravenous cocaine, drug levels in oral fluids were detectable after dosing for up to 3-6 hours. The length of time detectable drug concentrations were present in urine varied greatly. […] This variability could be attributed to a number of factors, including the volume of urine collected and the sensitivity of the cutoff used. In general, however, positive results were obtained in the subjects for up to 58 hours after dosing.
structure (smiles),measurement,setting,value
"CCCCCc1cc(O)c2c(c1)OC(C)(C)[C@@H]1CCC(C)=C[C@@H]21 [THC, Tetrahydrocannabinol]",persistence in saliva,"[1]; saliva, after use, depends on pH and rate of saliva flow",≤ 14 h
same,persistence in urine,"[1]; urine, depending upon the frequency of use",up to 30 days
"CN[C@@H](C)Cc1ccccc1 [Methamphetamine, methylamphetamine hydrochloride]",found unchanged in urine,[2]; acid urine,up to 76%
same,found unchanged in urine,[2]; alkaline urine,2%
same,excreted in the urine unchanged,[2]; normal conditions,up to 43%
same,time detected in oral fluid,"[2]; oral fluid, depends on dose and rate of saliva flow",≤ 50 h
same,time detection in urine is successful following use,[2]; urine,24 to 48 h
"COC(=O)[C@H]1[C@@H](OC(=O)c2ccccc2)C[C@@H]2CC[C@H]1N2C [Cocaine, benzyolmethylecgonine]",time after dosing at which cocaine concentrations in oral fluid were detectable,"[3]; all volunteers, 10 or 25 mg intravenous",5 min
same,time drug levels in oral fluids were detectable after dosing,"[3]; nine subjects, 25 mg intravenous",3 to 6 h
same,time after which oral fluid cocaine levels were no longer detectable,[3]; subject who received 10 mg intravenous,25 min

# Reference: patent publication US7544468B2, “Simultaneous collection of DNA and non-nucleic analytes” (Orasure Technologies, Inc., priority 1997, dated 2009)
